Reference: US20060173079A1, “Compositions and methods for improving the condition of patients suffering from copd and other diseases” (priority 2003, published 2006)
“Also recorded” adds a separate entry of the source. Each block holds one compound with its values, some of them ahead of it.

How the values were obtained:
[1] = Plasma urea concentration after test drinks; format: in vivo, human; details: for plasma urea compared to baseline values: healthy control and COPD group, 30.0 mg GLU/kg or 29.8 mg glutamine/kg every 20 min for 4 hours
Excerpt: The 3 test drinks were studied on different days and in a randomized order using a similar study protocol.

[2] = Side effects / tolerance incl. Chinese restaurant syndrome (food tolerance questionnaire); format: in vivo, human; details: for side effects / adverse complaints (including Chinese Restaurant syndrome symptoms): COPD patients and healthy control subjects, 6-7 g/hour for 4-6 hours
Procedure: In all the pilot studies, the patients and the healthy control subjects in the age ranging from 20 to 80 years were run through a protocol to determine feasibility.
In the experiments the intake of glutamate is usually in the order of 6-7 g/hour for a period of 4-6 hours meaning a total intake of […].
Moreover, a placebo (glutamine) was used for comparison.

[3] = Plasma lactate response to exercise; format: in vivo, human
Procedure: (§1) The subjects were measured before and during a submaximal constant work rate cycle test of 20 minutes (at 50% of their maximal workload previously achieved during an incremental exercise test).

[4] = system: whole body protein breakdown; assay: Whole body protein breakdown (phenylalanine turnover, stable isotope methodology); format: in vivo, human; details: young healthy volunteers, during GLU supplementation
Procedure: In the young healthy volunteers, whole body protein and 3-methylhistidine turnover were measured during glutamate supplementation using stable isotope methodology. […] In order to elucidate the contribution of muscle to whole body protein metabolism, the rate of myofibrillar protein breakdown (3-methylhistidine turnover) was simultaneously measured.

[5] = Plasma GLU concentration after continuous ingestion of a glutamate enriched drink; format: in vivo, human
Excerpt: When using a continuous infusion protocol of stable isotopes, plasma glutamate concentrations have to be in steady state condition before metabolic data can be obtained.
Subsequently, we performed several pilot studies (summary see FIG. 1) in order to obtain the optimal dose of glutamate. Pilot studies included continuous ingestion of a glutamate enriched drink and evaluation of the concentration of glutamate and related amino acids in plasma.
In the 2nd pilot study, we decided to use the pure form of glutamate to avoid the large sodium content. […] Blood samples were taken to evaluate plasma glutamate level.
This protocol was used in further studies.

[6] = GLU appearance in plasma and splanchnic GLU extraction (stable isotope methodology); format: in vivo, human; details: young subjects, after start of GLU ingestion
[7] = system: whole body leucine turnover; assay: Whole body leucine turnover (leucine tracer); format: in vivo, human
Procedure: FIG. 11: Whole body leucine rate of appearance gives a reflection of whole body leucine turnover and is the sum of leucine turnover coming from protein breakdown and from other (non-protein) sources.
as §1

[8] = system: myofibrillar (muscle) protein breakdown; assay: Myofibrillar protein breakdown (3-methylhistidine turnover / rate of appearance); format: in vivo, human; details: for 3-methylhistidine rate of appearance in plasma during exercise: submaximal cycle exercise 20 min at 50% maximal workload, GLU versus water
[9] = cited from earlier work

SMILES: NC(=O)CC[C@H](N)C(=O)O [GLN, glutamine, reference compound]
plasma urea compared to baseline values [1]: increased

time to steady state in GLU concentration after start of ingestion ([5]; 4 subjects, 30 mg GLU/kg body weight every 20 min (FIG. 2)): ≤ 2 h
rise in plasma GLU concentration, COPD group versus control group ([5]; 8 COPD patients vs 8 healthy controls, 30 mg GLU/kg every 20 min): significantly lower
time to steady state of plasma glutamate concentration ([5]; healthy young volunteers, 30 mg GLU/kg body weight every 20 min): ≤ 120 min
increase in the plasma glutamate concentration ([5]; healthy young volunteers, 30 mg GLU/kg body weight every 20 min (2.4% solution), total 300 mg/kg): about 500%
time to steady state of whole body GLU plasma appearance [6]: ≤ 1.5 h
SMILES: N[C@@H](CCC(=O)O)C(=O)O [GLU, L-glutamic acid]
CRS effects versus placebo (glutamine) ([2]; 26 healthy volunteers, 30 mg GLU/kg every 20 min): No significant differences
number and severity of complaints versus placebo (glutamine) ([2]; 26 healthy volunteers, 30 mg GLU/kg every 20 min, questionnaire until 2 hours after last ingestion): No differences
subjects having the symptoms known as Chinese restaurant syndrome ([2]; 26 healthy volunteers, 30 mg GLU/kg every 20 min, until 2 hours after ingestion): less than 5%
side effects / adverse complaints (including Chinese Restaurant syndrome symptoms) [2]: none
side effects / adverse complaints (including Chinese Restaurant syndrome symptoms) ([2]; listed as glutamate): do not occur
increase in plasma lactate concentration during exercise versus water ([3]; COPD group (text to FIG. 13)): lower increase
increase in plasma lactate concentration during exercise versus water ([3]; healthy control group (FIG. 13 legend)): lower increase
whole body protein breakdown rate (phenylalanine turnover) [4]: gradual decrease; also recorded: significantly decreased
plasma urea compared to baseline values [1]: decreased
plasma urea concentration after intake ([1]; healthy young volunteers, GLU with carbohydrate (maltodextrin) protein meal): decreased
plasma GLU level compared to baseline ([5]; COPD patients and healthy age-matched control subjects (both groups), 30 mg GLU/kg every 20 min, 120 min after start): significantly increased; also recorded: significant increase
steady state in plasma glutamate level ([5]; healthy volunteers, 69.4 mg glutamate/kg body weight every 30 minutes (2.4% solution)): 30 min intervals were too long to reach a steady state
plasma GLU concentration ([5]; healthy young volunteers, GLU added to carbohydrate (maltodextrin) whey protein meal (carbohydrate:protein:glutamate=5:2:5)): significantly increased to steady state values
whole body leucine turnover not related to protein turnover ([7]; at rest, COPD and control subjects): reduction
increase in whole body leucine turnover during exercise ([7]; cycle exercise 20 min at 50% maximal workload, 30 mg GLU/kg every 20 min versus water, COPD (and control) group): diminished the increase
myofibrillar protein breakdown during the first 10 minutes of exercise ([8]; COPD group, cycle exercise, ingesting glutamate): reduction
3-methylhistidine rate of appearance in plasma during exercise ([8]; COPD group): abolished the increase
3-methylhistidine rate of appearance in plasma during exercise ([8]; COPD group, listed as glutamate): diminished
myofibrillar protein breakdown (3-methylhistidine turnover) ([8]; young healthy volunteers at rest, in less than one hour after GLU ingestion): reduction; also recorded: decreased

SMILES: N[C@@H](CCC(=O)O)C(=O)[O-].[Na+] [MSG, monosodium glutamate]
tolerance of the drink ([2]; healthy volunteers, 3.6% MSG solution, 80.3 mg MSG/kg body weight every 30 minutes): well
side effects after high (bolus) dose ([9]; Graham et al., healthy subjects, bolus MSG): transient headaches
plasma GLU concentration versus dose ([9]; Stegink et al. and Ghezzi et al., healthy volunteers, various concentrations of MSG): increased proportionally to the given dose
muscle GLU concentration ([9]; young healthy men, glutamate provided in excess as MSG): increase
